# Test results as given in patent publication US10988465B2, “CXCR4 inhibitors and uses thereof” (X4 Pharmaceuticals, Inc., priority 2016, dated 2021).
# Legend:
# [1] = target: T1, CXCR-4 transfected U87 cell line (U87.CXCR4) (Homo sapiens, UniProt P61073); assay: Intracellular CXCL-12-induced calcium mobilization assay (FLIPR); assay type: cell-based; details: U87.CXCR4 cells; CXCL-12 25-50 ng/mL; compound added 15 min before; read-out: IC50 CXCL-12 Ca^2+ flux U87.CXCR4+
# T1 construct: expressed in transfected cells; host or cells: U87 (U87.CXCR4)
# T1 sequence (P61073 whole entry): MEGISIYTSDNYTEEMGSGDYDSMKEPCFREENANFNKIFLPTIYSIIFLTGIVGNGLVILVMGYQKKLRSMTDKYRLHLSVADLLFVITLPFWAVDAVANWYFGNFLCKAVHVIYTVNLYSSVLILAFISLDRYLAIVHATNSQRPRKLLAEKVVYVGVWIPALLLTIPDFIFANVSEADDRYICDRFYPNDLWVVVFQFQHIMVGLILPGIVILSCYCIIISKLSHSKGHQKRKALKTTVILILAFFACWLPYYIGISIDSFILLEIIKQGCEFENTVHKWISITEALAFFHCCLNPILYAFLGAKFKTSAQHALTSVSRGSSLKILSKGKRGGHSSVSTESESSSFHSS
# Procedure: Example 36: REGA Screening Assay
# Intracellular CXCL-12-Induced Calcium Mobilization Assay
# Intracellular calcium mobilization induced by chemokines or chemokine-derived peptides were evaluated using a calcium responsive fluorescent probe and a FLIPR system. The CXCR-4 transfected U87 cell line (U87.CXCR4) cells were seeded in gelatine-coated black-wall 96-well plates at 20,000 cells per well and incubated for 12 hours. Cells were then loaded with the fluorescent calcium probe Fluo-2 acetoxymethyl at 4 μM final concentration in assay buffer (Hanks' balanced salt solution with 20 mM HEPES buffer and 0.2% bovine serum albumin, pH 7.4) for 45 min at 37° C. The intracellular calcium mobilization induced by the CXCL-12 (25-50 ng/mL) was then measured at 37° C. by monitoring the fluorescence as a function of time in all the wells simultaneously using a fluorometric imaging plate reader (FLIPR Tetra, Molecular Devices).
# [2] = target: T2, Jurkat cells expressing CXCR4 (Homo sapiens, UniProt P61073); assay: Chemokine (CXCL12-AF647) binding inhibition assay; details: CXCL12-AF647 25 ng/mL, read-out: IC50 CXCL-12 binding Jurkat
# T2 construct: endogenous in cells; host or cells: Jurkat
# T2 sequence (P61073 whole entry): as above
# Procedure: Chemokine (CXCL12-AF647) Binding Inhibition Assay
# Jurkat cells expressing CXCR4 were washed once with assay buffer (Hanks' balanced salt solution with 20 mM HEPES buffer and 0.2% bovine serum albumin, pH 7.4) and then incubated for 15 min at room temperature with the test compounds diluted in assay buffer at dose-dependent concentrations. Subsequently, CXCL12-AF647 (25 ng/mL) was added to the compound-incubated cells. The cells were incubated for 30 min at room temperature. Thereafter, the cells were washed twice in assay buffer, fixed in 1% paraformaldehyde in PBS, and analyzed on the FL4 channel of a FACSCalibur flow cytometer equipped with a 635-nm red diode laser (Becton Dickinson, San Jose, Calif., USA).
# The percentages of inhibition of CXCL12-AF647 binding were calculated according to the formula: [1−((MFI−MFINC)/(MFIPC−MFINC))]×100 where MFI is the mean fluorescence intensity of the cells incubated with CXCL12-AF647 in the presence of the inhibitor, MFINC is the mean fluorescence intensity measured in the negative control (i.e., autofluorescence of unlabeled cells), and MFIPC is the mean fluorescence intensity of the positive control (i.e., cells exposed to CXCL12-AF647 alone).
# in vitro = details: human, Caco-2, pH 7.4
# Procedure: Example 37: Caco-2 Permeability Assay
# The goal of this assay was to evaluate the intestinal absorption potential of drug candidates using Caco-2 cell lines.
# HBSS buffer with 0.3% DMSO and 5 μM LY: add 150 μL DMSO and 50 μL LY (5 mM) into 50 ml HBSS buffer (pH 7.4).
# HBSS buffer with 0.1% DMSO and 5 μM LY: add 50 μL DMSO and 50 μL LY (5 mM) into 50 mL HBSS buffer (pH 7.4).
# HBSS buffer with 0.3% DMSO: add 150 μL DMSO into 50 ml HBSS buffer (pH 7.4).
# HBSS buffer with 0.1% DMSO: add 50 μL DMSO into 50 ml HBSS buffer (pH 7.4).
# Prepare HBSS buffer with 0.4% DMSO: add 200 μL DMSO into 50 ml HBSS buffer (pH 7.4).
# Prepare HBSS buffer with 0.4% DMSO and 5 μM LY: add 200 μL DMSO and 50 μL LY (5 mM) into 50 ml HBSS buffer (pH 7.4).
# 4. Measure TEER Take cell culture plate out of incubator, wash the cell monolayers with HBSS buffer, and then measure TEER values at Rm temperature. 5. Centrifuge Centrifuge the compound solution (from step 3) at 4000 rpm for 5 min before loading to donor chambers. 6. Dosing Add solution based on the volumes listed in the following table (make sure to take extra 100 μL of donor sample for T0 as Backup).
# 7. Apical LYT0 samples To determine LY concentration in the apical chember, take 100 μL sample from apical chambers into an opaque plate for LYT0. 8. Prewarm Prewarm apical and basolateral plates at 37° C. for about 5 min, then begin transport by placing the apical plate onto basolateral plate. 9. Incubation Keep the plates in incubator at 37° C. for 90 min. 10. Standard Curve preparation
# 11. Transport termination Separate the apical plate from the basolateral plate after 90-min incubation.
# Receiver sample: 60 μL of receiver sample+60 μL ACN with IS (Osalmid or Imipramine)
# Study details: Test concentration 10 μM
# Test systems: Caco-2/HBSS solution
# Incubation conditions: 0, 90 min at 37° C.
# Sample size: Duplicates (n=2)
# Bioanalytical method: LC-MS/MS
# For Millicell-24 Cell Culture Plates: surface area of the membrane=0.7 cm^2, VA=0.8 mL (A-to-B) or 0.4 mL (B-to-A)
# 1. Papp values were calculated based on calculated concentrations.
# The compound numbers correspond to the compound numbers in Table 1.
Structure (SMILES),IC50 [1],IC50 [2],"Papp A→B at 90 min, 10 μM (in vitro)","Papp B→A at 90 min, 10 μM (in vitro)","efflux ratio at 90 min, 10 μM (in vitro)"
Cc1cccnc1[C@@H]1CCC[C@H](c2nc3ccccc3n2CCCCN2CCOCC2)N1C [I-39],≥ 1000 nM,100 to 1000 nM,10 to 30 ×10⁻⁶ cm/s,10 to 30 ×10⁻⁶ cm/s,0.1 to 10
Cc1cccnc1[C@@H]1CCC[C@H](c2nc3ccccc3n2CCCCN2CCN(C)CC2)N1C [I-40],≥ 1000 nM,100 to 1000 nM,0.1 to 10 ×10⁻⁶ cm/s,10 to 30 ×10⁻⁶ cm/s,0.1 to 10
Cc1cccnc1[C@@H]1CCC[C@H](c2nc3ccccc3n2CCCCN2CCC(F)(F)CC2)N1C [I-41],≥ 1000 nM,0.01 to 100 nM,0.1 to 10 ×10⁻⁶ cm/s,0.1 to 10 ×10⁻⁶ cm/s,0.1 to 10
Cc1cccnc1[C@@H]1CCC[C@H](c2nc3cccc(OC4CCN(C)CC4)c3[nH]2)N1C [I-42],0.01 to 100 nM,0.01 to 100 nM,0.1 to 10 ×10⁻⁶ cm/s,10 to 30 ×10⁻⁶ cm/s,0.1 to 10
CCN1CCC(Oc2cccc3nc([C@H]4CCC[C@@H](c5ncccc5C)N4C)[nH]c23)CC1 [I-43],0.01 to 100 nM,0.01 to 100 nM,0.1 to 10 ×10⁻⁶ cm/s,10 to 30 ×10⁻⁶ cm/s,0.1 to 10
Cc1cccnc1[C@@H]1CCC[C@H](c2nc3cccc(OC4CCN(C(C)C)CC4)c3[nH]2)N1C [I-44],0.01 to 100 nM,0.01 to 100 nM,0.1 to 10 ×10⁻⁶ cm/s,10 to 30 ×10⁻⁶ cm/s,0.1 to 10
Cc1cccnc1[C@@H]1CCC[C@H](c2nc3c(Br)ccc(Br)c3n2CC2CCN(C)CC2)N1C [I-47],100 to 1000 nM,0.01 to 100 nM,0.1 to 10 ×10⁻⁶ cm/s,10 to 30 ×10⁻⁶ cm/s,0.1 to 10
CC(C)c1cccnc1[C@@H]1CCC[C@H](c2nc3cccc(N4CCN(C)CC4)c3[nH]2)N1C [I-49],100 to 1000 nM,0.01 to 100 nM,10 to 30 ×10⁻⁶ cm/s,0.1 to 10 ×10⁻⁶ cm/s,0.1 to 10
Cc1cccnc1[C@@H]1CCC[C@H](c2nc3cccc(N4CCNC(C)C4)c3[nH]2)N1C (stereo partly drawn) [I-50],0.01 to 100 nM,0.01 to 100 nM,0.1 to 10 ×10⁻⁶ cm/s,10 to 30 ×10⁻⁶ cm/s,10 to 30
Cc1cccnc1[C@@H]1CCC[C@H](c2nc3cccc(N4C[C@@H](C)N[C@@H](C)C4)c3[nH]2)N1C [I-51],0.01 to 100 nM,0.01 to 100 nM,0.1 to 10 ×10⁻⁶ cm/s,10 to 30 ×10⁻⁶ cm/s,0.1 to 10
Cc1cccnc1[C@@H]1CCC[C@H](c2nc3cccc(N4CCNC(C)(C)C4)c3[nH]2)N1C [I-52],0.01 to 100 nM,0.01 to 100 nM,0.1 to 10 ×10⁻⁶ cm/s,10 to 30 ×10⁻⁶ cm/s,10 to 30
Cc1cccnc1[C@@H]1CCC[C@H](c2nc3cccc(N4CCN(C)C(C)C4)c3[nH]2)N1C (stereo partly drawn) [I-53],0.01 to 100 nM,0.01 to 100 nM,10 to 30 ×10⁻⁶ cm/s,10 to 30 ×10⁻⁶ cm/s,0.1 to 10
